# Data taken from patent publication US12054447B2, “PCNA inhibitors” (City of Hope, priority 2015, dated 2024).
# What was measured:
# [1] = test system: HR-mediated DSB repair in DR-GFP cells; test: DSB repair assay, DR-GFP reporter; assay type: cell-based; conditions: I-SceI-induced DSB, GFP-positive cells by flow cytometry
# Experimental: (§1) The human NB cell lines, SK-N-DZ, SK-N-BE(2)c, SK-N-AS, and LAN-5 obtained from the American Type Culture Collection (Rockville, MD), were cultured in DMEM with 10% fetal bovine serum (FBS), 100 units/ml penicillin, and 100 μg/ml streptomycin in the presence of 5% CO2 at 37° C. Human PBMCs from a healthy donor were purchased from Sanguine BioSciences (Valencia, CA) and grown in RPMI1640 with 10% FBS, 100 units/ml penicillin, 100 μg/ml streptomycin, and 10 ng/ml IL-2 in the presence of 5% CO2 at 37° C. Human embryonic progenitor cell line 7SM0032 was acquired from Millipore (Billerica, MA) and grown in the hEPM-1 Media Kit purchased from the same company. The plasmid pCBASce expresses the rare cutting I-SceI meganuclease. The U20S-derived cell lines, DR-GFP and EJ5-GFP, each contain a stably transfected reporter gene for DSB repair mediated by HR and end joining (EJ), respectively. These cell lines were cultured in DMEM medium with 10% FBS at 37° C. in the presence of 5% CO2.
# DR-GFP and EJ5-GFP cell lines were seeded at 2.5×10^4 cells/cm^2 in a 12-well plate. […] The HR and EJ-mediated DSB repair, indicated by the restoration of a functional GFP gene in the respective cell lines, were quantified by measuring the relative abundance of GFP-positive cells by flow cytometry 3 days after transfection.
# 7SM0032 = test: Cell growth, CellTitor-Glo assay, 72 h; assay type: cell-based, human; conditions: Homo sapiens; 7SM0032 (non-malignant)
# Experimental: as §1
# To measure the effect of the compounds on cell growth, cells were seeded at 3×10^4/ml into a 96-well plate. Once attached, cells were treated with various concentrations of AOH1160 for 72 h. Cell growth was measured by the CellTitor-Glo assay (Promega, Madison, WI) according to the manufacturer's instructions. To measure apoptosis, cells were seeded at 1×10^5/ml onto a chamber slide. Once attached, cells were treated with the 500 nM AOH1160 for 24 h. Cells were fixed and analyzed by a TUNEL assay using the TMR red in situ cell death detection kit (Roche Diagnostics, Indianapolis, IN).
# SK-N-DZ = test: Clonogenic assay with cisplatin; assay type: cell-based, human; conditions: cisplatin with or without 500 nM AOH1160 for 18 h, 3 weeks
# Experimental: Three hundred human SK-N-DZ NB cells were seeded onto a 60-mm tissue culture dish. Once attached overnight, cells were treated with or without various concentrations of cisplatin in the presence or absence of 500 nM of AOH1160 for 18 h. Cells were washed twice with growth medium and were cultured in fresh medium for 3 weeks to allow surviving cells to form colonies. The medium was changed every 3 days throughout the experiment. The colonies formed under each treatment conditions were counted after being stained with 0.5% crystal violet.
# [2] = test system: MDA-MB-436 xenograft tumor; test: Xenograft of a triple-negative breast cancer cell line in Es1e/SCID mice; assay type: in vivo; conditions: 40 mg/kg once daily
# Experimental: (§2) FIGS. 10A-10B. Inhibition of the growth xenograft tumor derived from a triple-negative breast cancer cell line (MDA-MB-436). Mice bearing xenograft tumors were given vehicle only or 40 mg/kg of AOH1160 through the study. Shown are tumor volumes (FIG. 10A) and mouse body weights (FIG. 10B) in the course of the study. The Es1e/SCID mice used in this study were treated by vehicle only (diamond) or by 40 mg/kg AOH1160 (square) once daily.
# as §2, with “Inhibition” for “FIGS. 10A-10B. Inhibition”
# [3] = Pharmacokinetics (PK) of AOH1160 in animals; assay type: in vivo, Rat; conditions: for AUC(0-inf) / Cmax / Tmax / half-life: rat, in vivo, po, 20 mg/kg, Rat PO 20 mg/kg
# HCT-15 = test: AOH1160 IC50 in additional cancer cell lines (Table 4); assay type: cell-based; conditions: Homo sapiens; HCT-15, Colon
# Description: (§3) In addition numerous analogs related to AOH1160 were screened in numerous neuroblastoma cell lines for anti-cancer activity (Table 2). AOH1160 was screened for anti-cancer activity in additional cancer cell lines besides neuroblastoma (Table 3).
# HCT-116 = test: as above; assay type: cell-based; conditions: Homo sapiens; HCT-116, Colon
# Description: as §3
# OVCAR-8 = test: as above; assay type: cell-based; conditions: Homo sapiens; OVCAR-8, Ovarian
# Description: as §3
# Recombinant human PCNA = molecular target: T1, Recombinant human PCNA (Homo sapiens, UniProt P12004); test: Saturation Transfer Difference (STD) NMR, competition with T3; assay type: binding; conditions: 1 μM PCNA, 30 μM T3, 3.2 μM AOH1160
# T1 construct: made in house
# T1 sequence (P12004 whole entry): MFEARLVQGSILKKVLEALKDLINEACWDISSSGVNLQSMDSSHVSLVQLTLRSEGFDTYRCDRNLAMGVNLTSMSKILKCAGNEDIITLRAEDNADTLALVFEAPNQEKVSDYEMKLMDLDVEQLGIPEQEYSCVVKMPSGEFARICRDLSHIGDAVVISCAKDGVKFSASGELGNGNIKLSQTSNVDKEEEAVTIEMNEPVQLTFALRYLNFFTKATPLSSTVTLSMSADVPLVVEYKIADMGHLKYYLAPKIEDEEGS
# Experimental: Recombinant human PCNA was purified and exchanged to D2O-based phosphate buffered saline (PBS), pH 7.2. […] The reference spectra were acquired under the same condition without PCNA. 5 uM DSS was used as an internal reference to determine the reported ligand concentration in solution. All NMR experiments were carried out at 25° C. on 600 MHz Bruker Avance equipped with 5 mm triple resonance cryogenic probe. STD (Saturation Transfer Difference) NMR spectra were acquired with transients ranging from 2560 to 32000, spectral width 8012 Hz with 24 k data points. The recycle delay was 2.8 s. Selective saturation was composed of 50 gauss shaped pulses at a field strength of 86 Hz, and the duration of each pulse is 50 ms with a 500 μs delay between pulses. The spin lock filter used to suppress protein signal was optimized to 60 ms at field strength of 5 kHz. The frequency for protein saturation was optimized to be 0.9 ppm; the ligand signals were not disturbed with the employed selective saturation condition at this frequency. The reference spectrum was acquired with saturation irradiated at −30 ppm. To eliminate potential artifacts, the saturation and reference experiments were acquired in an interleaved manner, and the finished experiments were separated into two 1D data for analysis. The peak integration was carried out with Bruker Topspin software. […]
smiles,measurement,setting,value
O=C(CNC(=O)c1cccc2ccccc12)Nc1ccccc1Oc1ccccc1 [AOH1160],HR-mediated DSB repair,[1],blocks DNA repair in DR-GFP
same,IC50,7SM0032,> 20000 nM
same,sensitivity to cisplatin (colony formation),SK-N-DZ,more sensitive to cisplatin treatment in the presence of AOH1160 than in its absence
same,weight loss,[2],caused no significant weight loss
same,tumor growth (tumor volumes),[2]; vs vehicle,inhibited tumor growth
same,oral availability,[3]; animals,orally available
same,AUC(0-inf),[3]; BID dosing,429 ± 195 ng·h/mL
same,Cmax,[3]; BID dosing,73 ± 23 ng/mL
same,Tmax,[3]; BID dosing,6 h
same,half-life,[3]; BID dosing,4.3 ± 1.7 h
same,AUC(0-inf),[3]; Single dosing,383 ± 110 ng·h/mL
same,Cmax,[3]; Single dosing,50 ± 31 ng/mL
same,Tmax,[3]; Single dosing,3.3 ± 2.3 h
same,half-life,[3]; Single dosing,3.8 ± 31 h
same,IC50,HCT-15,133 nM
same,IC50,HCT-116,102 nM
same,IC50,OVCAR-8,204 nM
same,competition with T3 for binding to PCNA,Recombinant human PCNA,competes with T3 for binding to PCNA
